The values below come from US20230312550A1, “N-(2-(4-CYANOTHIAZOLIDIN-3-YL)-2-OXOETHYL)-QUINOLINE-4-CARBOXAMIDES” (AstraZeneca AB, priority 2020, published 2023).

Assay [1] concerns the target human dipeptidylpeptidase 8 (hDPP8) (Homo sapiens (Human), UniProt Q6V1X1). The assay can be described thus: hDPP8 inhibition assay. It counts as biochemical. The note with it: Ala-Pro-amino-methylcoumarin 5 μM, n = 1. As to the method:
(§1) The enzymatic reactions were conducted in duplicate at rt for 30 min in 50 μL DPP assay buffer (BPS Bioscience, #80300). […] The plates were read on a Tecan Infinite M1000 microplate reader with excitation 340 nm and emission 460 nm. Data were analyzed in Graph Pad Prism. IC50 values were determined by plotting % inhibition versus log compound concentration and using a one site dose response model. Raw data signals were normalized using 1% DMSO as 0% control and no enzyme as 100% inhibitor control.

Assay [2] deals with hFAP (M39-A757) (Homo sapiens (Human), UniProt Q12884). In words: hFAP binding assay (surface plasmon resonance). The note with it: SPR, 20° C., single cycle kinetics.
Assay [3] addresses Fibroblast Activation Protein alpha (FAP) (Mus musculus (Mouse), UniProt P97321). In words: in vivo.
Method: The effect of test compound on FAP enzyme activity in mouse plasma was evaluated in an enzymatic assay using the Fibroblast Activation Protein alpha (FAP) specific fluorogenic substrate dipeptide-Coumarin, Ala-Pro-AMC, (ARI-3144).
Male C57Bl/6 mice (Charles River, Germany), 8 weeks of age, were single housed in a temperature-controlled room with a 12-hour light/dark cycle (06:00-18:00 light). The mice had ad libitum access to water and rodent chow diet (R70, Lactamin, Kimstad, Sweden), and were acclimated for 5 days upon arrival. After acclimation, all mice received a single oral dose of test compound (3 or 10 mg/kg). Blood samples for whole blood compound exposure measurements were taken at 0.25, 0.5, 1, 2, 4, 8 and 24 h post oral dosing. Samples were collected in EDTA capillary tubes (20 μL, K2E, REF 19.447) and were transferred to a 96-deep well plate (NUNC, Thermo Discher Scientific) and stored at −20° C. until further analyses were performed. Blood samples for plasma FAP enzyme activity measurements were taken at 0, 0.25, 0.5, 1, 2, 8 and 24 h post dosing. 25 μL of whole blood was collected in EDTA Microvette® CB 300 (K2E, REF 16.444.100) tubes, and were centrifuged at 4,000×g for 5 min. 10 μL of plasma was then transferred to PCR tubes and stored at −20° C. until further analysis was performed. All blood samples were taken by vena saphena puncture.
Recombinant human FAP (PB-17-1837, construct PL-17-0278, cd33-FAP (27-757)-6His, Mw85926 Da) was used as a standard for this assay. […] The plates were read on a Beckman Paradigm reader with excitation 360 nm and emission 465 nm. Fluorescence measurements were performed with kinetic read every 5 minutes for 60 min at room temperature. Data were analyzed in Excel (IDBS XLfit Add-In) using a Linear Regression (y=k*x+m) model to prepare a human recombinant FAP standard curve.
On the day of the assay, plasma was diluted (1:2) to 20 μL volume in buffer (PBS, 0.1% BSA) and 7.5 μL was transferred to the assay plate (384-well black, fluotrack PS, Greiner 781076). Ala-Pro-AMC (stock solution in 10 mM DMSO) was diluted in buffer (PBS, 0.1% BSA) to 150 μM concentration (180 μL stock solution to 12 mL buffer) and 7.5 μL added to the assay plate followed by a pipetting mix. The plates were read on a Beckman Paradigm reader with excitation 360 nm and emission 465 nm. Fluorescence measurements were performed with kinetic read every 5 minutes for 60 minutes at room temperature. As noted above, FAP cleaves Ala-Pro-AMC to release free AMC which is measured as a fluorescent signal.
The in vivo potency IC50 of each test compound was then estimated by relating the plasma exposure C of the compound to target engagement E in plasma using the following equation:
where E0 is the FAP baseline in plasma prior to dosing and Imax is the maximum effect of the compound. Data from each target engagement experiment were considered separately and therefore slightly different estimates of FAP baseline for each compound were obtained. […] The parameter estimation was done in Phoenix WinNonlin Certara build 8.1.0.3530 with the algorithm ‘Naïve pooled’ as parameter estimation method.
Assay [4] addresses human dipeptidylpeptidase 7 (hDPP7) (Homo sapiens (Human), UniProt Q9UHL4). The assay can be described thus: hDPP7 inhibition assay. The note with it: hDPP7 15 nM, Ala-Pro-amino-methylcoumarin 5 μM, n = 1. The class given is biochemical. As to the method: Compounds were tested in a biochemical inhibition assay using human dipeptidylpeptidase 7 (hDPP7) enzyme at 15 nM FAC (BPS Bioscience, #80070) and the substrate Ala-Pro-amino-methylcoumarin (BPS Bioscience, #80305) at 5 μM FAC. The enzymatic reactions were conducted in duplicate at rt for 30 min in 50 μL DPP assay buffer (BPS Bioscience, #80300). Compound solutions (in DMSO) at 10 CR, 3 fold dilution series were prepared in assay buffer ten-fold higher than the final concentration, and 5 μL of the dilution was added to a 50 μL reaction so that the highest compound concentration was 100 μM FAC and the concentration of DMSO was 1% in all wells. The plates were read on a Tecan Infinite M1000 microplate reader with excitation 340 nm and emission 460 nm. Data were analyzed in Graph Pad Prism. IC50 values were determined by plotting % inhibition versus log compound concentration and using a one site dose response model. Raw data signals were normalized using 1% DMSO as 0% control and no enzyme as 100% inhibitor control.

Assay [5] has as its target human dipeptidylpeptidase 9 (hDPP9) (Homo sapiens (Human), UniProt Q86TI2). The assay can be described thus: hDPP9 inhibition assay. The class given is biochemical. The note with it: hDPP9 0.4 nM, Ala-Pro-amino-methylcoumarin 5 μM, n = 1. How it is done:
as §1, with “Compounds were tested in a biochemical inhibition assay using human dipeptidylpeptidase 9 (hDPP9) enzyme at 0.4 nM FAC (BPS Bioscience, #80090) and the substrate Ala-Pro-amino-methylcoumarin (BPS Bioscience #80305) at 5 μM FAC. The enzymatic” for “The enzymatic”

Assay [6] deals with FAP (Mus musculus (Mouse), UniProt P97321). In words: FAP plasma inhibition assay, mouse plasma. The class given is biochemical. The note with it: mouse plasma diluted 1:67, Ala-Pro-AMC 75 μM. The gist of the method:
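K2EDTA plasma served as enzyme source, human diluted 1:40 and mouse 1:67, in PBS with 0.1% BSA. Compounds ran as a 10-point 3-fold series from 500 nM final, in duplicate, 40 min at rt in the dark, with fluorescence read against a pre-substrate blank. IC50 came from % inhibition versus log concentration.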

The target in assay [7] is Prolyl endopeptidase, Prolyl Oligopeptidase (hPREP) (Homo sapiens (Human), UniProt P48147). The assay can be described thus: hPrep inhibition assay. The note with it: hPREP 0.6 nM, Z-Gly-Pro-amino-methylcoumarin 50 μM; read-out: PREP IC50. The class given is biochemical. Put shortly:
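Fluorogenic read-out (340 nm excitation, 460 nm emission) after 20 min at rt, using 50 μM final Z-Gly-Pro-aminomethylcoumarin and 0.6 nM final enzyme, following 15 min compound preincubation. Buffer pH 7.5 with glutathione and Triton X-100. IC50 via one-site model on % inhibition vs log concentration.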

Each structure is given as a SMILES string. A value given as a limit tells only on which side of the number the result lay.

hFAP (M39-A757), sequence (Q12884 39-757): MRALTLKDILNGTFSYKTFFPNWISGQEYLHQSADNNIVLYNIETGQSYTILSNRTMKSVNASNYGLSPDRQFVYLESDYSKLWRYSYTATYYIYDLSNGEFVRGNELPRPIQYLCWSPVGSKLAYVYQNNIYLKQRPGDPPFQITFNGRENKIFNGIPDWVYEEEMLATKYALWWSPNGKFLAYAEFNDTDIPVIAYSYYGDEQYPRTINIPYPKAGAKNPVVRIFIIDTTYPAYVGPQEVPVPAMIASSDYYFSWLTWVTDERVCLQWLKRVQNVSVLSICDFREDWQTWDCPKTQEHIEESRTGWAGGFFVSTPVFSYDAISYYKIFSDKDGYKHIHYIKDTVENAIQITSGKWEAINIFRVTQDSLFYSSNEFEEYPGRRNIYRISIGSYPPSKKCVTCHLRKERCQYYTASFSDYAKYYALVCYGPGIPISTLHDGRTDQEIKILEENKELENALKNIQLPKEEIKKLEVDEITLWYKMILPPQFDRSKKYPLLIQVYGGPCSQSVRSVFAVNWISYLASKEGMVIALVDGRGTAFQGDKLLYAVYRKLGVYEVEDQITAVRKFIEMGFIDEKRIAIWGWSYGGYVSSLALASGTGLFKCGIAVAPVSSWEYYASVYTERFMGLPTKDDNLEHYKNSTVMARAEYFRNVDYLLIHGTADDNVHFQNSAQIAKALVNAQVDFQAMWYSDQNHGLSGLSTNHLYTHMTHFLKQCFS
Prolyl endopeptidase, Prolyl Oligopeptidase (hPREP), sequence (P48147 whole entry): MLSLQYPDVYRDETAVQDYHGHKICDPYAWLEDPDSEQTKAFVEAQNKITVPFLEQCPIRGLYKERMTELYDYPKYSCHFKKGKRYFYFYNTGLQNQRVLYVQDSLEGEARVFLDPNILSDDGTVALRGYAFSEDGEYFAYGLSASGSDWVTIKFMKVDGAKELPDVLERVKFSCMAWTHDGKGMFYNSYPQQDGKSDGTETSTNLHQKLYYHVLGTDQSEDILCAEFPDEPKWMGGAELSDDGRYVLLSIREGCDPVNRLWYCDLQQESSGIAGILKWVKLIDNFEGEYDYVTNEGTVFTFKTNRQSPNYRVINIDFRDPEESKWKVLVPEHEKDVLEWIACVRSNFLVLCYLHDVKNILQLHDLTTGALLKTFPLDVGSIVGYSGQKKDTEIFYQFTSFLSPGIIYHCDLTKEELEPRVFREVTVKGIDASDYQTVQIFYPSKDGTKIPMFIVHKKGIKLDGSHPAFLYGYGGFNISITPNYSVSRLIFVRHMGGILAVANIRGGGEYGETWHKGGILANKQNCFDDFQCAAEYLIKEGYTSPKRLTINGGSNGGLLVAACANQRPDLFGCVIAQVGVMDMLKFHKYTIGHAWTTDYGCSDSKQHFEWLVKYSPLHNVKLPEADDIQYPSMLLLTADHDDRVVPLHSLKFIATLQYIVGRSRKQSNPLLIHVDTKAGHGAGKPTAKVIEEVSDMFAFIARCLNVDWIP
FAP, sequence (P97321 24-761): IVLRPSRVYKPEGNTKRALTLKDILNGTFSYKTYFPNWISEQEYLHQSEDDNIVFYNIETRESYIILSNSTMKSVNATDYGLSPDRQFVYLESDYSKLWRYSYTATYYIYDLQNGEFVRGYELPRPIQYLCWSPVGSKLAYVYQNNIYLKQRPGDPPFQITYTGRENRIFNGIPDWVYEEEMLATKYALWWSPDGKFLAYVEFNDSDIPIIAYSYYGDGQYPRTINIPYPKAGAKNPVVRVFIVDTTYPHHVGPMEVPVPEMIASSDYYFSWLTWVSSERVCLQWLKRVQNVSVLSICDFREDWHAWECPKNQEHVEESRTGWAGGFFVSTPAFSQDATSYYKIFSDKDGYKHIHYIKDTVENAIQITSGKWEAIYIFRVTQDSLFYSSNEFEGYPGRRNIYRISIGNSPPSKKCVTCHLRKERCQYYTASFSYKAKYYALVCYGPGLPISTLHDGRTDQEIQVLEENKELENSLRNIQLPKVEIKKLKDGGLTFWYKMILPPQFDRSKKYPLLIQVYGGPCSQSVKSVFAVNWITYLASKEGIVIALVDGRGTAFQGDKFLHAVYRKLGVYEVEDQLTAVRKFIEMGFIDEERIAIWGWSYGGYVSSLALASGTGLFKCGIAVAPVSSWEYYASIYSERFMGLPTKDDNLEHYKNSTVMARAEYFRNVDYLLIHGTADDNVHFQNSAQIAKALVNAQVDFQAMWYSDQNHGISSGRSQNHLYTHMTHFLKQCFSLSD
human dipeptidylpeptidase 9 (hDPP9), sequence (Q86TI2 whole entry): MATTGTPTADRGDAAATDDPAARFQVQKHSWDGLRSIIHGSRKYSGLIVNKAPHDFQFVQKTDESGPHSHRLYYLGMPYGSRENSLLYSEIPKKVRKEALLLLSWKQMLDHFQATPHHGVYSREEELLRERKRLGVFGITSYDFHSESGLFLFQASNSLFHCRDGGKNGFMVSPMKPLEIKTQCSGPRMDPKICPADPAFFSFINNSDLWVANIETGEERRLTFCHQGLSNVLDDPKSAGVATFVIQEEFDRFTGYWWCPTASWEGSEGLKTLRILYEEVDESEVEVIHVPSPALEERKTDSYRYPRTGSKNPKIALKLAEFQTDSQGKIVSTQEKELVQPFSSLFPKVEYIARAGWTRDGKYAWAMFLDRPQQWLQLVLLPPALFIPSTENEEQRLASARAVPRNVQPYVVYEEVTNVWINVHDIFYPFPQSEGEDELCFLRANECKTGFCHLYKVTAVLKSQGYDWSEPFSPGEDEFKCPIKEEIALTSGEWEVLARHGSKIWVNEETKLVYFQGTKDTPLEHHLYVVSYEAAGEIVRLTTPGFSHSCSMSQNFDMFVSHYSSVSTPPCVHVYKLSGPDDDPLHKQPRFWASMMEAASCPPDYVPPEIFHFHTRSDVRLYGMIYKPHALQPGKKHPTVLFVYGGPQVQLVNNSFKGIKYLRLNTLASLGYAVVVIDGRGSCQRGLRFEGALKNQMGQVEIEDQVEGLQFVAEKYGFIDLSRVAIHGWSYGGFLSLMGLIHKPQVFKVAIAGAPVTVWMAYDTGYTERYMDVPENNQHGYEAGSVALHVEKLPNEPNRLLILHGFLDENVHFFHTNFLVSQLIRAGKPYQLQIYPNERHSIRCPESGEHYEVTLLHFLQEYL
human dipeptidylpeptidase 8 (hDPP8), sequence (Q6V1X1 whole entry): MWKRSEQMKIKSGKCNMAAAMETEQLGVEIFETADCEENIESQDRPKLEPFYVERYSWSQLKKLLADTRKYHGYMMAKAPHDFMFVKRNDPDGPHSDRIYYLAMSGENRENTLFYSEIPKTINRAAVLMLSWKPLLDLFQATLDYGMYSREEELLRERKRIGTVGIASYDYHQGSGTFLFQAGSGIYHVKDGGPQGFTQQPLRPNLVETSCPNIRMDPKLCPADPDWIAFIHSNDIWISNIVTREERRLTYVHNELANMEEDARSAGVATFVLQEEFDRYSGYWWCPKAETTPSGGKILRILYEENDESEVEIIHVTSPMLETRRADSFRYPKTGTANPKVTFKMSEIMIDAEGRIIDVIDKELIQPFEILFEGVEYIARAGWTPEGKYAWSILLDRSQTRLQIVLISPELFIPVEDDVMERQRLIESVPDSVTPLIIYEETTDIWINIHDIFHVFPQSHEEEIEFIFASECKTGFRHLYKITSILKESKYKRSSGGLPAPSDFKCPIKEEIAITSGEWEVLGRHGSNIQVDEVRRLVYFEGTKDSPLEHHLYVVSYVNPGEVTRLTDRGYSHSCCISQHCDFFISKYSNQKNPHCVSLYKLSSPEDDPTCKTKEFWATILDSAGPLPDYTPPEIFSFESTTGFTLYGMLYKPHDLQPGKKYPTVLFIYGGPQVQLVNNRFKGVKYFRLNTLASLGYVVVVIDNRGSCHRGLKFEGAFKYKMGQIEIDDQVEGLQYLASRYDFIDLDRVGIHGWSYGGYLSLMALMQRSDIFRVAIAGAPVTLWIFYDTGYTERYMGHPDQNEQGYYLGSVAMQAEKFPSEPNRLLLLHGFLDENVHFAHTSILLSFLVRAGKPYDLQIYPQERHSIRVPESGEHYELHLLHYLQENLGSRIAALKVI
Fibroblast Activation Protein alpha (FAP), sequence (P97321 24-761): as the sequence (P97321 24-761) above

The IC50 is the concentration that inhibits the measured activity by half. As for `C[C@@H]1CN(c2ccc3nccc(C(=O)NCC(=O)N4CSC[C@H]4C#N)c3c2)C[C@H](C)O1` [Example 68, N-(2-((R)-4-Cyanothiazolidin-3-yl)-2-oxoethyl)-6-((2R,6S)-2,6-dimethylmorpholino)-quinoline-4-carboxamide], the IC50 was 6.6 µM in assay [1]; 0.019 µM in assay [3]; above 100 µM in assay [4]; 1.5 µM in assay [5]; 0.0005 µM in assay [6]; 1.7 µM in assay [7]. The “hFAP Binding assay k(off)” value in assay [2] worked out at 0.00011 s⁻¹. Besides, the “hFAP Binding assay k(on)” value in assay [2] came to 1000000 M⁻¹ s⁻¹.

With `C[C@@H]1CN(c2ccc3nccc(C(=O)NCC(=O)N4CSC[C@H]4C#N)c3c2)C[C@@H](C)O1` [Example 70, N-(2-((R)-4-Cyanothiazolidin-3-yl)-2-oxoethyl)-6-((2R,6R)-2,6-dimethylmorpholino)-quinoline-4-carboxamide], the IC50 in assay [1] was 4.7 µM; in assay [4] it was above 100 µM; in assay [5] it was 1.4 µM; in assay [6], 0.0003 µM; in assay [7], 1.1 µM. For the same compound, the “hFAP Binding assay k(off)” value in assay [2] is 0.00014 s⁻¹. Moreover, the “hFAP Binding assay k(on)” value in assay [2] is 5400000 M⁻¹ s⁻¹.
